For series [1], the system named is Raji. As to the kind of experiment: Cytotoxicity against human Raji cells. The class given is functional, cell-based.
Series [2] addresses T1, Large neutral amino acids transporter small subunit 1 (Homo sapiens, UniProt Q01650). The series is described as follows: Inhibition of LAT1 in human MCF7 cells assessed as inhibition of leucine uptake. The class given is cell-based.
The subject of series [3] is MCF7. As to the kind of experiment: Antiproliferative activity against human MCF7 cells assessed as inhibition of cell growth. The class given is functional, cell-based.
Series [4] is described as follows: Half life in human. The class given is ADME.
The target of series [5] is T2, Monocarboxylate transporter 1 (Rattus norvegicus, UniProt P53987).
T2 sequence (P53987 whole entry): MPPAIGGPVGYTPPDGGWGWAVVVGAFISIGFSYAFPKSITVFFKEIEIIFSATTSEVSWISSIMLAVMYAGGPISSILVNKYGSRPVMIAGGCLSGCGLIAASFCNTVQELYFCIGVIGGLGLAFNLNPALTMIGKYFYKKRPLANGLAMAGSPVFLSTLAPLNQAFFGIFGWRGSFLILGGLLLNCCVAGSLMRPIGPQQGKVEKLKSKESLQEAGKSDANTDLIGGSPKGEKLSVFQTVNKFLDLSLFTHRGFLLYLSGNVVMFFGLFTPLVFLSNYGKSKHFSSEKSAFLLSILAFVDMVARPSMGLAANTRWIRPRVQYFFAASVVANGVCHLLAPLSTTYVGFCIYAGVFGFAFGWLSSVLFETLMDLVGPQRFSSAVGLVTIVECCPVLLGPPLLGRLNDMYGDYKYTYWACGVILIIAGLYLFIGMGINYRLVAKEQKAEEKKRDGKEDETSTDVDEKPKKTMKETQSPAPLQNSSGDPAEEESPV
The series is described as follows: Inhibition of MCT1 in rat RBE4 cells assessed as reduction in [14C]lactate uptake measured after 15 mins by liquid scintillation counting analysis. The class given is cell-based.

Series [6] in a line: Drug metabolism in Sprague-Dawley rat plasma at 10 uM measured after 8 hrs. Format: ADME, cell-free, Sprague-Dawely. Conditions: read-out: Drug metabolism.
The target of series [7] is T1, Large neutral amino acids transporter small subunit 1. As to the kind of experiment: Inhibition of LAT1 (unknown origin) expressed in S2 cells assessed as inhibition of [14C]phenylalanine uptake at 50 uM. Format: cell-based.
For series [8] the target is unchanged. The series is described as follows: Inhibition of LAT1 (unknown origin) expressed in astrocytes assessed as inhibition of [14C]phenylalanine uptake at 50 uM. Format: cell-based. As to conditions: Astrocyte.
For series [9], the system named is MIA PaCa-2. The series is described as follows: Antitumor activity against human MIA PaCa-2 cells xenografted in ip dosed mouse assessed as prolongation of animal's mean life span. Format: functional.
Series [10] relates to BXPC-3. As to the kind of experiment: Antitumor activity against human BXPC-3 cells xenografted in ip dosed mouse assessed as prolongation of animal's mean life span. Format: functional. (In general: In xenograft studies the graft and the host belong to different species.)

Twelve molecules from ChEMBL document CHEMBL5214914, “Novel strategies to improve tumour therapy by targeting the proteins MCT1, MCT4 and LAT1” (Eur J Med Chem, 2021) can be followed below.

The term EC50 denotes the midpoint of the concentration-response curve. Lower therefore signals greater potency. Usually IC50 stands for the midpoint of a concentration-inhibition curve. One may read the half-life as the time needed for the level to fall by half in the phase considered. Low values mean rapid decline, high ones slow decline. A word on the inhibition: it is the percentage by which the read-out fell short of the control.

T1 sequence (Q01650 whole entry): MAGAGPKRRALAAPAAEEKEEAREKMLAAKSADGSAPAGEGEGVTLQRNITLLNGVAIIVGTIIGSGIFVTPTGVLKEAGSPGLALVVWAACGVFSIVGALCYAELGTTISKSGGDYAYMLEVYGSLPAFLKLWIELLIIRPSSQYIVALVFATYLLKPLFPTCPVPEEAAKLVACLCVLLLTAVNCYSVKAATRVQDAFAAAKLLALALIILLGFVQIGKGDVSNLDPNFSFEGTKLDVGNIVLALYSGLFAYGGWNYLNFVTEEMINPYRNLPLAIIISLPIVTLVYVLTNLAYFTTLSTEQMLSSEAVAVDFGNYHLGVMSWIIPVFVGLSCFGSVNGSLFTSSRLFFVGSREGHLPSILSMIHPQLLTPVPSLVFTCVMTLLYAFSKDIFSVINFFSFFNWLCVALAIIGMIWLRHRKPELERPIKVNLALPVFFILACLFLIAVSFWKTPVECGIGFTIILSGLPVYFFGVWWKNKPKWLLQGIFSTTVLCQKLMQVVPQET

`CC(C)Cc1nn(C)c(=O)c2c(SCCCO)n(Cc3cnc(NCCCCCNC(=O)[C@H](N)CCC(N)=O)c4ccccc34)cc12` returned an EC50 in series [1] of 0.16 nM.
Turning to `CC(C)Cc1nn(C)c(=O)c2c(SCCCO)n(Cc3cc(NCCCCCNC(=O)[C@H](N)CCC(N)=O)nc4ccccc34)cc12`, the EC50 in [1] was 0.8 nM.
In the case of `CNC(=O)COc1ccc(C2=C(C#N)C3N=C4C=CC=CC4N3C(NC(=O)c3cccc(C[C@H](N)C(=O)O)c3)=C2C#N)cc1` (stereo not given in full), the IC50 in series [2] was found to be 18200 nM; in series [3], 124000 nM.
`CC(C)Cc1nn(C)c(=O)c2c(SCCCO)n(Cc3cnc(NCCCCCN)c4ccccc34)cc12` registered an EC50 in series [1] of 0.8 nM.
`Nc1ccn([C@@H]2O[C@H](CO)[C@@H](O)C2(F)F)c(=O)n1` [GEMCITABINE] gave a half-life in series [4] of 9 min.
As for `CC(C)c1ccc(/C=C(\C#N)C(=O)O)cc1`, the IC50 in series [5] was found to be 66 nM.
As for `C[C@@H](O)[C@H](Nc1ccn([C@@H]2O[C@H](CO)[C@@H](O)C2(F)F)c(=O)n1)C(=O)O`, the metabolised at 8 h, 10 µM in series [6] was found to be 20%.
With `NC(Cc1cc(I)c(Oc2ccc(O)c(I)c2)c(I)c1)C(=O)O` (stereo not given), the inhibition in [7] and in series [8] was 90% in each case.
In series [1], `CC(C)Cc1nn(C)c(=O)c2c(SCCCO)n(Cc3ccc(C#CCCCNC(=O)[C@H](N)CCC(N)=O)c4ccccc34)cc12` had an EC50 of 4 nM.
Consider `N#C/C(=C\c1ccc(O)cc1)C(=O)O` [alpha-CYANO-4-HYDROXYCINNAMIC ACID], for which the concentration for half-maximal inhibition (IC50) in [5] was 281 nM.
For the molecule `CC(C)Cc1nn(C)c(=O)c2c(SCCCO)n(Cc3ccc(C#CCCCOc4ccc(C[C@H](N)C(=O)O)cc4)c4ccccc34)cc12`, the midpoint of the response in [1], the EC50, lay at 0.8 nM.
In the case of `Nc1cc(COc2c(Cl)cc(CC(N)C(=O)O)cc2Cl)c2oc(-c3ccccc3)nc2c1` (stereo not given), the figures for the ILS in series [9] and in series [10] were 14 days and 10 days, respectively.
